Nine compounds from patent US9732060B2, “Aminotriazine derivative and pharmaceutical composition comprising the same” (Shionogi & Co., Ltd., priority 2013, dated 2017) can be followed below.

Molecules are shown by their SMILES. Some results are limits rather than exact numbers.

Series [1] concerns the target T1, human P2X3 receptor (Homo sapiens (Human), UniProt P56373). As to the kind of experiment: Evaluation of human P2X3 receptor inhibitory activity (FLIPR Ca fluorescence, ATP-evoked). It is filed as cell-based. To be noted: C6BU-1 cells stably expressing human P2X3 receptor. The protocol: Stably expressing cell line (C6BU-1 cell transfected with human P2X3 receptor gene (GenBank accession number Y07683) was used. The cells were seeded in a 384-well PDL-coated microtiter plate at a concentration of 3000 cells/well and cultured in the medium (8.3% fetal bovine serum, 8.3% horse serum, and 1% antibiotic and antifungal in DMEM) for one day at 37° C. under 5% carbon dioxide atmosphere. The medium was replaced with 4 μM Fluo-3-AM solution (20 mM HEPES, 137 mM NaCl, 2.7 mM KCl, 0.9 mM MgCl2, 5.0 mM CaCl2, 5.6 mM D-glucose, 2.5 mM probenecid, 0.5% BSA, and 0.04% Pluronic P-127, pH 7.5) and incubated at 37° C. under 5% dioxide carbon atmosphere for one hour. The plate was washed with washing buffer (20 mM HEPES, 137 mM NaCl, 2.7 mM KCl, 0.9 mM MgCl2, 5.0 mM CaCl2, 5.6 mM D-glucose, 2.5 mM probenecid, pH 7.5), and each well was added with 20 μL of the washing buffer. The plate was placed in High-Throughput Screening System FLIPR 384 (Molecular Device Co.). Measurement of fluorescence intensity by […] was started, and 20 μL of DMSO solutions containing different concentrations of the test compound as prepared by dilution with dilution buffer (20 mM HEPES, 137 mM NaCl, 2.7 mM KCl, 0.9 mM MgCl2, 5.0 mM CaCl2, 5.6 mM D-glucose, 2.5 mM probenecid, 0.1% Pluronic F-127, pH 7.5) were dispensed to each well through the built-in automatic dispenser. Five minutes after, 150 nM ATP solution (25 μL) prepared by dilution with the dilution buffer was dispensed through the built-in automatic dispenser, and the measurement of fluorescence intensity was continued for 4 min. For each well, the specific maximum fluorescence intensity was calculated as the ratio of the maximum fluorescence intensity after addition of the ATP solution to the fluorescence intensity at the starting of the measurement. […] The specific maximum fluorescence intensify and IC50 were calculated using Spotfire (Science & Technology Systems. Inc.)

In series [2] the target is CYP2C9 (Homo sapiens (Human), UniProt P11712). As to the kind of experiment: CYP inhibition test, CYP2C9. It is filed as in vitro ADME. The conditions noted are these: pooled human hepatic microsome; tolbutamide methyl-hydroxylation. Here is the method: (§1) Using commercially available pooled human hepatic microsome, and employing, as markers, 7-ethoxyresorufin-O-deethylation (CYP1A2), tolbutamide methyl-hydroxylation (CYP2C9), mephenytoin 4′-hydroxylation (CYP2C19), dextromethorphan O-demethylation (CYP2D6), and terfenedine hydroxylation as typical substrate metabolism reactions of human main five CYP enzyme forms (CYP1A2, 2C9, 2C19, 2D6, 3A4), an inhibitory degree of each metabolite production amount by a test compound was assessed.
Sequence of CYP2C9 (P11712 whole entry): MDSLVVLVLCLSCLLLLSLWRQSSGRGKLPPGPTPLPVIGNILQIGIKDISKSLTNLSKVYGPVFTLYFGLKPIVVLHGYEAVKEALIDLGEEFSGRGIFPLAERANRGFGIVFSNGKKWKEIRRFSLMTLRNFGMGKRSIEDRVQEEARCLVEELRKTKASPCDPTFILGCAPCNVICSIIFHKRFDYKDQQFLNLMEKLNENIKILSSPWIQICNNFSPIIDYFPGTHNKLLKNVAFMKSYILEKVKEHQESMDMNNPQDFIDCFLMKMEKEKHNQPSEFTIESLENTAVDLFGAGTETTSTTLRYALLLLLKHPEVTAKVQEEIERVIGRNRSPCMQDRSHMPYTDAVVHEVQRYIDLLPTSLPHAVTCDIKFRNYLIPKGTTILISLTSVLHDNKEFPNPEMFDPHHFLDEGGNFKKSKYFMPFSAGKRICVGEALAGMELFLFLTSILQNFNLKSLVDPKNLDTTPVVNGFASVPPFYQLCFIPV
(§2) The reaction conditions were as follows: substrate, 0.5 μmol/L ethoxyresorufin (CYP1A2), 100 μmol/L tolbutamide (CYP2C9), 50 μmol/L S-mephenitoin (CYP2C19), 5 μmol/L dextromethorphan (CYP2D6), 1 μmol/L terfenedine (CYP3A4); reaction time, 15 minutes; reaction temperature, 37° C. enzyme, pooled human hepatic microsome 0.2 mg protein/mL; test, drug concentration, 1.0, 5.0, 10, 20 μmol/L (four points).
(§3) Each five kinds of substrates, human hepatic microsome, or a test drug in 50 mmol/L Hepes buffer as a reaction solution was added to a […] at the composition as described above, NADPH, as a cofactor was added to initiate metabolism reactions as markers and, after the incubation at 37° C. for 15 minutes, a methanol/acetonitrile=1/1 (v/v) solution was added to stop the reaction. After the centrifugation at 3000 rpm for 15 minutes, resorufin (CYP1A2 metabolite) in the supernatant was quantified by a fluorescent multilabel counter and tributamide hydroxide (CYP2CP metabolite), mephenytoin 4′hydroxide (CYP2C19 metabolite), […] (CYP2D6 metabolite), and terfenadine alcohol (CYP3A4 metabolite) were quantified by LC/MS/MS.
(§4) Addition of only DMSO being a solvent dissolving a drug to a reaction system was adopted as a control (100%), remaining activity (%) was calculated at each concentration of a test drug added as the solution and IC50 was calculated by reverse presumption by a logistic model using a concentration and an inhibition rate.

Series [3] in a line: Solubility test (1% DMSO, artificial intestinal juice pH 6.8). It is filed as physicochemical. To be noted: artificial intestinal juice pH 6.8 with 1% DMSO, 25 °C, fassgf or other biorelevant, kinetic from dmso stock, artificial intestinal juice pH 6.8, 25 degrees Celsius, read-out: Solubulity. Here is the method: The solubility of a compound was determined under a condition in which 1% DMSO was added. 10 mmol/L compound solution was prepared using DMSO, and then 2 μL of the compound solution was added to 198 μL of artificial intestinal juice in pH 6.8 (to 250 mL of 0.2 mol/L potassium dihydrogen phosphate reagent solution was added 118 mL of 0.2 mol/L NaOH reagent solution and water to provide a final volume of 1000 mL). After standing at 25 degrees Celsius for 18 hours, the mixed solution was filtrated with suction. The filtrate was diluted twice with methanol/water (1/1), and then a concentration in the filtration was measured with HPLC or LC/MS/MS by the absolute calibration method.

Series [4] addresses CYP2D6 (Homo sapiens (Human), UniProt P10635). As to the kind of experiment: CYP inhibition test, CYP2D6. To be noted: pooled human hepatic microsome; dextromethorphan O-demethylation. It is filed as in vitro ADME. Here is the method: as §1, §2, §3, §4
Series [5] is described as follows: Metabolism stability test, pooled human hepatic microsomes. It is filed as in vitro ADME. The conditions noted are these: remaining rate, human liver microsomes, 30 minutes, compound concentration 0.5 μmol/L. The protocol: Using commercially available pooled human hepatic microsomes, a test compound is reacted for a constant time, a remaining rate is calculated by comparing a reacted sample and an unreacted sample, thereby, a degree of metabolism in liver is assessed.
A reaction was performed (oxidative reaction) at 37° C. for 0 minute or 30 minutes in the presence of 1 mmol/L NADPH in 0.2 mL of a buffer (50 mmol/L tris-HCl pH 7.4, 150 mmol/L potassium chloride, 10 mmol/L magnesium chloride) containing 0.5 mg protein/mL of human liver microsomes. After the reaction, 50 μL of the reaction solution was added to 100 μL of a methanol/acetonitrile=1/1 (v/v) mixed and centrifuged at 3000 rpm for 15 minutes. The test compound in the supernatant was quantified by LC/MS/MS, and a remaining amount of the test compound after the reaction was calculated, letting a compound amount at 0 minute reaction time to be 100%.
The remaining rate at the compound concentration 0.5 μmol/L are shown below.

Series [6] addresses CYP2C19 (Homo sapiens (Human), UniProt P33261). As to the kind of experiment: CYP inhibition test, CYP2C19. It is filed as in vitro ADME. To be noted: pooled human hepatic microsome; mephenytoin 4′-hydroxylation. The protocol:
as §1, §2, §3, §4

Series [7] has as its target CYP1A2 (Homo sapiens (Human), UniProt P05177). As to the kind of experiment: CYP inhibition test, CYP1A2. The conditions noted are these: pooled human hepatic microsome; 7-ethoxyresorufin-O-deethylation. It is filed as in vitro ADME. The protocol: as §1, §2, §3, §4
In series [8] the target is CYP3A4 (Homo sapiens (Human), UniProt P08684). As to the kind of experiment: CYP inhibition test, CYP3A4. To be noted: pooled human hepatic microsome; terfenedine hydroxylation. It is filed as in vitro ADME. Here is the method: as §1, §2, §3, §4
Sequence of CYP3A4 (P08684 whole entry): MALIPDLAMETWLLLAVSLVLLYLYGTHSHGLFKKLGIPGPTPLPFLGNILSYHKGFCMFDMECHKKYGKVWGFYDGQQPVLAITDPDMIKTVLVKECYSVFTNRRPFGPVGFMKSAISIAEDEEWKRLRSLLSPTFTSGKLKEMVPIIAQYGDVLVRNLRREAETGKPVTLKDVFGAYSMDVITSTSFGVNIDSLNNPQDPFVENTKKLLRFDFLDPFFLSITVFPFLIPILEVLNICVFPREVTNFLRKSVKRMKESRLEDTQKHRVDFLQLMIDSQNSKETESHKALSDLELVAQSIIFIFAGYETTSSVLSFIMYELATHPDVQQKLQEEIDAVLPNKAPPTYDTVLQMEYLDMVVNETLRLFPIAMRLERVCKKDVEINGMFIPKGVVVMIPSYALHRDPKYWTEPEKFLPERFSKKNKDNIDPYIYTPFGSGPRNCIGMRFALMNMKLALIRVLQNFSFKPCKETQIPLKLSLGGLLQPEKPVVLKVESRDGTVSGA
Series [9] addresses T1, human P2X3 receptor. As to the kind of experiment: Evaluation of human P2X3 receptor inhibitory activity in the presence of human serum albumin (HSA). It is filed as cell-based. To be noted: in the presence of 1% HSA (final concentration). Here is the method:
Stably expressing cell line (C6BU-1 cell transfected with human P2X3 receptor gene (GenBank accession number Y07683; was used. The cells were seeded in a 96-well microtiter plate at a concentration of 8000 cells/well and cultured in the medium (7.0% fetal bovine serum, 7.0% horse serum, 1% antibiotic and antifungal, and 2.0% glutamine in DMEM) for one day at 37° C. under 5% carbon dioxide atmosphere. The medium was replaced with 4 μM Fluo-3-AM solution (20 mM HEPES, 137 mM NaCl, 5.37 mM KCl, 0.9 mM MgCl2, 1.26 mM CaCl2, 5.6 mM D-glucose, 2.5 mM probenecid, 0.5% BSA, and 0.04% Pluronic F-127, pH 7.5) and incubated at 37° C. under 5% dioxide carbon atmosphere for one hour. The plate was washed with washing buffer (20 mM HEPES, 137 mM NaCl, 5.27 mM KCl, 0.9 mM MgCl2, 1.26 mM CaCl2, 5.6 mM D-glucose, 2.5 mM probenecid, pH 7.5), and each well was added with 40 μL of this buffer. The plate was placed in High-Throughput Screening System FDSS 3000 (Hamamatsu Photonics K.K.). Measurement of fluorescence intensity by FDSS 3000 was started, and 40 μL of DMSO solutions containing 1% HSA (final concentrations) different concentrations of the test compound as prepared by dilution with dilution buffer (20 mM HEPES, 137 mM NaCl, 5.27 mM KCl, 0.9 mM MgCl2, 1.26 mM CaCl2, 5.6 mM D-glucose, 2.5 mM probenecid, 0.1% Pluronic F-127, pH 7.5) were dispensed to each well through the built-in automatic dispenser. Five minutes after, 50 nM ATP solution (50 μL) prepared by dilution with the dilution buffer was dispensed through the built-in automatic dispenser, and the measurement of fluorescence intensity was continued for 4 min. For each well, the specific maximum fluorescence intensity was calculated as the ratio of the maximum fluorescence intensity after addition of the ATP solution to the fluorescence intensity at the starting of the measurement. […] FDSS software (Hamamatsu Photonics K.K.) was used for calculation of the specific maximum fluorescence intensity. IC50 was calculated using Microsoft Excel (Microsoft Corporation) and XLfit (idbs Ltd.)

T1 sequence (P56373 whole entry): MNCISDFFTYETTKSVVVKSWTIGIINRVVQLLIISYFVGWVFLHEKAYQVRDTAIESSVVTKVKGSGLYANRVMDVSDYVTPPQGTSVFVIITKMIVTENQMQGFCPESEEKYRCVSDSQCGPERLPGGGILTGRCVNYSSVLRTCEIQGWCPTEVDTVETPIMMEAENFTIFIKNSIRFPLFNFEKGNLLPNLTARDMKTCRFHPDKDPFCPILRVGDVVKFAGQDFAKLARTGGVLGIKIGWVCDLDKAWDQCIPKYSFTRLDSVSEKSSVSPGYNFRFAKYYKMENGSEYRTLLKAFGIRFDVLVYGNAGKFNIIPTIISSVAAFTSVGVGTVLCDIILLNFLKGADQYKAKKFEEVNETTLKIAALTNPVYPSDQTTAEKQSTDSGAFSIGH
Sequence of CYP2C19 (P33261 whole entry): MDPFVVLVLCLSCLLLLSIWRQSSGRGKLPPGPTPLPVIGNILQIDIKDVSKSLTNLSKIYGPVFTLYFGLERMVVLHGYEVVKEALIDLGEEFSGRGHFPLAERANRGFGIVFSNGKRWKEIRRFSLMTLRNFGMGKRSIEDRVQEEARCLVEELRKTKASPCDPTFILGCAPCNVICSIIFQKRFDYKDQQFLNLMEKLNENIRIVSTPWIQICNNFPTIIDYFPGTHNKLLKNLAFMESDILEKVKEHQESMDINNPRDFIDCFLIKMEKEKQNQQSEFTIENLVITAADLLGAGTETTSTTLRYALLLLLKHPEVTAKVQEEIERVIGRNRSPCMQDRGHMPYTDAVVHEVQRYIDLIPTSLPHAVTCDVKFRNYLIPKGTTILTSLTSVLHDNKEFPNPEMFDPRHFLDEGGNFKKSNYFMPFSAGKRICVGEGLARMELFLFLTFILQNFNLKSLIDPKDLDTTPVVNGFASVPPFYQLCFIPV
Sequence of CYP2D6 (P10635 whole entry): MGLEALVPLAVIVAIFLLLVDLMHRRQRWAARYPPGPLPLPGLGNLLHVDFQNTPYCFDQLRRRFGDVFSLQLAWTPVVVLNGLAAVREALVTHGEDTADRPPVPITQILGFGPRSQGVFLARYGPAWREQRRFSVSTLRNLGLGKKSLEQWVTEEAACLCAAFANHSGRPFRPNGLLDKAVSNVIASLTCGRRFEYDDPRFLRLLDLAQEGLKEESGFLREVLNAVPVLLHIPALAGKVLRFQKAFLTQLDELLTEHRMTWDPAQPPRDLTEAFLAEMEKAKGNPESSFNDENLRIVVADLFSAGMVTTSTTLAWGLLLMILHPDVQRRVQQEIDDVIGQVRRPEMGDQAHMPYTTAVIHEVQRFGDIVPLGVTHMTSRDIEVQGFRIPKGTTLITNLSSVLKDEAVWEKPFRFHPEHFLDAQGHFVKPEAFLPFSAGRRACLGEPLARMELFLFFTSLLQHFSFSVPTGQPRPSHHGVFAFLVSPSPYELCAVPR
Sequence of CYP1A2 (P05177 whole entry): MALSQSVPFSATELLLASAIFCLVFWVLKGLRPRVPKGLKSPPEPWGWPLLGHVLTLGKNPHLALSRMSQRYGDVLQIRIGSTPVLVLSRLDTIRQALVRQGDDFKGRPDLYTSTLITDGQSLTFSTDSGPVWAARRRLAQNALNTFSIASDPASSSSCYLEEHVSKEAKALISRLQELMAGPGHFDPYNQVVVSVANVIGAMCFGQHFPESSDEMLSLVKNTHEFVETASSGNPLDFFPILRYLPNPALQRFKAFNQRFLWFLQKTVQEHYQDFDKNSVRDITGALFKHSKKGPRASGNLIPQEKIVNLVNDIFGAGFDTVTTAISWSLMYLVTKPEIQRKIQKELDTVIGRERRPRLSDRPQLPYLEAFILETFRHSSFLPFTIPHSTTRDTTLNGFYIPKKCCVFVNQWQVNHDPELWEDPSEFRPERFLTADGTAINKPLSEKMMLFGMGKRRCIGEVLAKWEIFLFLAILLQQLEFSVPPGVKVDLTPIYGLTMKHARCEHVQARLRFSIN

As usually defined, the IC50 is the midpoint of a concentration-inhibition curve. For `COC(=O)[C@@H](C)Cn1c(=O)[nH]/c(=N\c2ccc(Oc3ccc(F)cn3)cc2)n(Cc2ccc(F)cc2F)c1=O` [Compound I-025], the IC50 in series [1] was determined as 23 nM.
As to `O=c1[nH]/c(=N\c2ccc(Oc3ncccc3F)cc2)n(Cc2ccc(Cl)cc2)c(=O)n1[C@H]1C[C@H](C(=O)O)C1` [Compound I-063], the IC50 in series [2], in [4], in series [6], in series [7] and in series [8] was greater than 20000 nM each time. The solubility at 18 h in series [3] is greater than 50 µM. Besides, the “Metabolism Stability” value in series [5] is listed as 97%.
Turning to `C[C@@H](Cn1c(=O)[nH]/c(=N\c2ccc(Oc3cc(F)ccn3)cc2)n(Cc2ccc(Cl)cc2)c1=O)C(=O)O` [Compound I-070], in series [9], the IC50 is 37 nM. Further, the “Metabolism Stability” value in series [5] is given as 103%.
Turning to `COc1ccc(Oc2ccc(/N=c3\[nH]c(=O)n(C[C@H](C)C(=O)O)c(=O)n3Cc3ccc(Cl)cc3)cc2)nc1` [Compound I-079], the IC50 in series [9] was determined as 37 nM.
Consider `[2H]C([2H])([2H])c1ccc(Cn2c(=O)n(C[C@H](C)C(=O)O)c(=O)[nH]/c2=N\c2ccc(Oc3ccc(F)cn3)cc2)cc1` [Compound I-130], for which, in [1], the IC50 was found to be 6 nM.
On the same count and under the same terms, for `COC(=O)[C@@H](C)Cn1c(=O)[nH]/c(=N\c2ccc(Oc3ccccn3)c(F)c2)n(C[C@H]2CC[C@H](C)CC2)c1=O` [Compound I-253] the value was 9 nM.
For the compound `C[C@@H](Cn1c(=O)[nH]/c(=N\c2ccc(Oc3ccnc(C#N)c3)cc2)n(Cc2ccc(Cl)cc2)c1=O)C(=O)O` [Compound R-123], in series [9], the IC50 was 18 nM.
Consider `C[C@@H](C(=O)O)[C@H](C)n1c(=O)[nH]/c(=N\c2ccc(Oc3ccnc(Cl)c3)cc2)n(Cc2ccc(Cl)cc2)c1=O` [Compound R-154], for which, in [1], inhibition was half-maximal at 8 nM (IC50).
`Cc1ccc(Cn2c(=O)n(C[C@H](C)C(=O)O)c(=O)[nH]/c2=N\c2ccc(Oc3ncc(C)s3)cc2)cc1` [Compound R-218] displayed an IC50 in series [1] of 8 nM.
